Measured values: patent publication US20050100902A1, “5-cyano-1h-indole derivatives as antagonist of the inerleukine-8 receptors” (priority 2001, published 2005)

## N#Cc1ccc2[nH]c(-c3ccc(Cl)c(Cl)c3)c(CCCC(=O)O)c2c1 [Example 1, 2-(3,4-dichlorophenyl)-5-cyano-1H-indole-3-butanoic Acid]
  melting point: 158 to 160 °C
